Data set [1] in a line: Stability in mouse liver microsomal preparations. Format: in vitro ADME. As to conditions: liver microsomes, with and without 1 mM NADPH (not said which), read-out: Mouse Liver Microsomes t1/2. The procedure: (§1) Relative stability of Example Compound Nos. 1 through 60 in mouse plasma and mouse liver microsomal preparations.
(§2) Certain Example Compounds were each added to a final concentration of 1 μM to 1 mL of each of mouse plasma and mouse liver microsomal preparations (with and without 1 mM NADPH). Stability assays were run in duplicate and were sampled at 0, 5, 15, 30, 60 and 120 minutes as follows: one hundred microliter aliquots of samples were removed at the specified sampling times, and the reaction was quenched with 400 μL of acetonitrile.
(§3) Samples were analyzed by HPLC-ESI-MS/MS by measuring the peak area of both the starting Example Compound and parent compound (i.e., either Parent Compound A or Parent Compound B) that were created by removal of the Prodrug Moiety (as defined in Section 6 herein).
(Liver microsomes are a subcellular fraction often used to study metabolism.)

Data set [2] in a line: Kinetic solubility (iSol Explorer method). Particulars: system solution buffer (pION), aqueous buffer, kinetic from dmso stock. Format: physicochemical. The procedure:
Kinetic solubility was determined using the iSol Explorer method (pION Inc.; Woburn, Mass.). Certain Example Compounds were dissolved in dimethylsulfoxide (DMSO; >99.9% ACS spectrophotometric grade; Sigma-Aldrich, St. Louis, Mo.) to a concentration of 100 mM. The DMSO stock was diluted 1:100 in system solution buffer (pION Inc. Wobum Mass.) that had been adjusted to the desired pH (5.0, 6.8, and 7.4) with either HCl or NaOH. The diluted samples in the desired buffer were incubated for 15 minutes at room temperature and filtered using 96-well plate with 0.25 mm glass fiber/1.2 μm polyethersulfone filter bottoms (Corning, Inc.; Corning, N.Y.). The filtrate is transferred to a second 96-well plate and read on a SpectraMAX 190 (Molecular Devices; Sunnyvale, Calif.) scanning from 190 to 498 nm. The data are analyzed with Sol Explorer Command version 2.2, (pION Inc. Woburn, Mass.) and the concentration reported in molarity and/or mass per volume.

Data set [3] in a line: Stability assessment / semi-quantitative hygroscopicity in a relative humidity (RH) chamber. Format: physicochemical. Particulars: solid in RH chamber; morphology and parent:prodrug composition. As for the experimental part:
“ND” in Table 2 refers to “No Data”. Purity was determined by HPLC. Melting point was determined by differential scanning calorimetry (“DSC”), and semi-quantitative hygroscopicity was determined in a relative humidity (“RH”) chamber.

A short description of data set [4]: Stability in mouse plasma. Particulars: read-out: Mouse Plasma t1/2. It is filed as in vitro ADME. As for the experimental part:
as §1, §2, §3

Data set [5] relates to HT1080 human fibrosarcoma cancer cells. Description: Anti-tumor activity in HT1080 human fibrosarcoma xenograft with twice daily dosing. It is filed as in vivo. Particulars: for animals with no detectable tumors by the end of the study: cohort of ten. The procedure: One million HT1080 cells were implanted subcutaneously in the right flank of female nude mice (Crl:NU-Fox1^nu). When the median tumor volume (MTV) was approximately 209 mm^3, mice were randomized into four cohorts of ten animals. […] All cohorts were dosed twice daily for 7 days. The mice were observed daily for mortality and signs of toxicity. Tumor volumes and body weights were determined from Days 1 to 22. The results are depicted in FIG. 4.
In general terms: A xenograft is tissue or cells of one species grown in another, often human tumour cells in immunodeficient mice.

The mark [6] stands for this setting: pH 5.0, 15 minutes at room temperature.
Setting [7] is: pH 6.8, 15 minutes at room temperature.
Where [8] appears, read: pH 7.4, 15 minutes at room temperature.
Setting [9] is: Example Compounds 44/45 study, 8 mg/kg twice daily for 7 days, Day 9.
Setting [10] is: Example Compounds 44/45 study, 8 mg/kg twice daily for 7 days, end of the study, Day 22.
[11] abbreviates: Example Compounds 44/45 study, 12 mg/kg twice daily for 7 days, Day 9.
[12] abbreviates: Example Compounds 44/45 study, 12 mg/kg twice daily for 7 days, end of the study, Day 22.

Consider `CC(=O)OC[n+]1cccc(CNC(=O)Nc2ccc(OCCc3ccccc3-c3ccccc3)cc2)c1` [Example 34, 1-[(Acetyloxy)methyl]-3-{[({4-[2-(biphenyl-2-yl)ethoxy]phenyl}carbamoyl)amino]methyl}pyridinium], for which, in data set [1], the half-life at 1 µM is less than 5 min. The figures for the solubility at 15 min in data set [2] (setting [6]), in data set [2] (setting [7]) and in data set [2] (setting [8]) were 397 µM, 393 µM and 399 µM, respectively.

Consider `CC(C)(C)C(=O)OC[n+]1cccc(CNC(=O)Nc2ccc(OCCc3ccccc3-c3ccccc3)cc2)c1` [Example 36, 3-{[({4-[2-(Biphenyl-2-yl)ethoxy]phenyl}carbamoyl)amino]methyl}-1-{[(2,2-dimethylpropanoyl)oxy]methyl}pyridinium], for which the “Stability at 60° C. and 75% RH” value in data set [3] is on record as “Oiled out at 1 hr No change in composition”. Besides, the solubility at 15 min amounted to 601 µM in data set [2] (setting [6]), 547 µM in data set [2] (setting [7]) and 524 µM in data set [2] (setting [8]).

On to `CC(=O)OC(C(C)C)[n+]1cccc(CNC(=O)Nc2ccc(OCCc3ccccc3-c3ccccc3)cc2)c1` (centres unmarked) [Example 38, 1-[1-(Acetyloxy)-2-methylpropyl]-3-{[({4-[2-(biphenyl-2-yl)ethoxy]phenyl}carbamoyl)amino]methyl}pyridinium], for which the half-life at 1 µM in data set [1] amounted to 30.9 min. Further, in data set [3], the “Stability at 40° C. and 75% RH” value is listed as “No change in morphology at 7 days”; the “Stability at 60° C. and 75% RH” value was “Deliquesced at 4 days”. In addition, in data set [4], the half-life at 1 µM is more than 5 min.

As to `CC(OC(=O)C(C)(C)C)[n+]1cccc(CNC(=O)Nc2ccc(OCCc3ccccc3-c3ccccc3)cc2)c1` (centres unmarked) [Example 39, 3-{[({4-[2-(Biphenyl-2-yl)ethoxy]phenyl}carbamoyl)amino]methyl}-1-{1-[(2,2-dimethylpropanoyl)oxy]ethyl}pyridinium], the half-life at 1 µM in data set [1] amounted to 113 min. Further, in data set [3], the “Stability at 40° C. and 75% RH” value was “Deliquesced at 2 Hr No change in composition”; the “Stability at 60° C. and 75% RH” value was “Deliquesced at 2 Hr No change in composition”. Also, the half-life at 1 µM in data set [4] amounted to 27 min.

`CC(C)C(OC(=O)C(C)(C)C)[n+]1cccc(CNC(=O)Nc2ccc(OCCc3ccccc3-c3ccccc3)cc2)c1` (centres unmarked) [Example 40, 3-{[({4-[2-(Biphenyl-2-yl)ethoxy]phenyl}carbamoyl)amino]methyl}-1-{1-[(2,2-dimethylpropanoyl)oxy]-2-methylpropyl}pyridinium]: the figures for the half-life at 1 µM in data set [1] and in data set [4] were 399 min and 53.5 min, respectively. Further, the “Stability at 40° C. and 75% RH” value in data set [3] was “No change in morphology at 14 days, only prodrug observed”. Moreover, the “Stability at 60° C. and 75% RH” value in data set [3] is “Approximately 5:95 parent to prodrug moiety observed at 14 days”.

For `CCCC(=O)OC[n+]1cccc(CNC(=O)Nc2ccc(OCCc3ccccc3-c3ccccc3)cc2)c1` [Example 41, 3-{[({4-[2-(Biphenyl-2-yl)ethoxy]phenyl}carbamoyl)amino]methyl}-1-[(butanoyloxy)methyl]pyridinium], in data set [1], the half-life at 1 µM is less than 5 min. In addition, in data set [3], the “Stability at 40° C. and 75% RH” value is reported as “No change in morphology at 14 days, only prodrug observed”; the “Stability at 60° C. and 75% RH” value is “Deliquesced at 24 hr No change in composition”. In addition, the half-life at 1 µM in data set [4] is less than 5 min.

In the case of `CC(C)C(OC(=O)c1ccccc1)[n+]1cccc(CNC(=O)Nc2ccc(OCCc3ccccc3-c3ccccc3)cc2)c1` (centres unmarked) [Example 43, 1-[1-(Benzoyloxy)-2-methylpropyl]-3-{[({4-[2-(biphenyl-2-yl)ethoxy]phenyl}carbamoyl)amino]methyl} pyridinium], the half-life at 1 µM in data set [1] was determined as 59.1 min; in data set [4], 29.8 min. The “Stability at 40° C. and 75% RH” value in data set [3] was “No change in morphology at 14 days, only prodrug observed”. The “Stability at 60° C. and 75% RH” value in data set [3] is “Approximately 5:95 parent to prodrug observed at 14 days”.

Turning to `CC(C)C(=O)OC[n+]1cccc(CNC(=O)Nc2ccc(OCCc3ccccc3-c3ccccc3)cc2)c1` [Example 44, 3-{[({4-[2-(Biphenyl-2-yl)ethoxy]phenyl}carbamoyl)amino]methyl}-1-{[(2-methylpropanoyl)oxy]methyl}pyridinium], the half-life at 1 µM in data set [1] and in data set [4] was less than 5 min each time. In addition, the “Stability at 40° C. and 75% RH” value in data set [3] was “No change in morphology at 14 days, circa 7:93 parent to prodrug”. In addition, the “Stability at 60° C. and 75% RH” value in data set [3] is “Deliquesced at 5 days approximately 50:50 parent to prodrug”. Also, the “animals with no detectable tumors by the end of the study” value in data set [5] (Example Compounds 44/45 study, 8 mg/kg) was “One”; in data set [5] (Example Compounds 44/45 study, 12 mg/kg), “three”. Moreover, the MTV decrease in data set [5] (setting [9]) worked out at 62%; in data set [5] (setting [11]), 67%; in data set [5] (setting [12]), 67%. Further, the figures for the tumor regression in data set [5] (setting [9]), in data set [5] (setting [11]) and in data set [5] (setting [12]) were 62%, 67% and 67%, respectively. In addition, the MTV increase in data set [5] (setting [10]) was determined as 16%. Besides, the tumor growth inhibition in data set [5] (setting [10]) stood at 95%. For the same molecule, the “anti-tumor activity in the HT1080 xenograft model (summary statement)” value in data set [5] (administered orally, twice daily, all doses tested) was “significant anti-tumor activity”. For the same molecule, the Tolerability entry in data set [5] (xenograft mice, all doses tested, orally twice daily) is “well tolerated”.

For orientation: solubility means the concentration that dissolves in the medium under given conditions. High values mean much dissolved substance, low ones little dissolved substance.

These data come from patent US20150344426A1, “COMPOUNDS AND THERAPEUTIC USES THEREOF” (ALZHEIMER'S INSTITUTE OF AMERICA, INC., priority 2012, published 2015).
